According to PMC9828437, “Novel hybrids of thiazolidinedione-1,3,4-oxadiazole derivatives: synthesis, molecular docking, MD simulations, ADMET study, in vitro, and in vivo anti-diabetic assessment” (RSC Advances, 2023):
Several values for one entry are separate records, joined by “and”; a condition that tells them apart may be missing. Equal values may be shown once.

Legend:
α-amylase = test: In vitro α-amylase inhibitory assay; assay type: biochemical; details: mean of three replicates ±SD
Method: The reaction mixture contains 20 μL of α-amylase solution (0.5 mg mL^−1) and 200 μL of sodium phosphate buffer (pH 6.9, 0.02 M). Test samples ([…]) were added (250 μL) to the reaction mixture following which; incubation was carried out for 10 min at room temperature. This was accompanied by the addition of 200 μL of 1% starch solution, and further incubated for 10 min at 25 °C. By adding 400 μL of dinitrosalicylic acid (DNS) reagent, the reaction was terminated. Lastly, it was incubated in water (70 °C, 5 min). The absorbance was recorded using an ELISA microplate reader at 540 nm. […] All the experiments were performed in triplicates. It was the reaction mixture without the test sample that served as the control for the test.[31]
The percent inhibition was calculated as:% Inhibition = [(C − T)/C] × 100C – absorbance of control, T – absorbance of sample.

α-glucosidase = test: In vitro α-glycosidase inhibitory assay; assay type: biochemical; details: mean of three replicates ±SD
Method: The reaction mixture contains 50 μL of 0.1 M phosphate buffer (pH = 6.8), 10 μL of α-glucosidase enzyme and 20 μL of test samples (10–50 μg mL^−1) were taken in a 96-well plate and incubated at 37 °C for 15 min. Furthermore, 20 μL of p-nitrophenyl D-glucopyranoside solution was added as a substrate and incubated for an additional 20 min at 37 °C. 50 μL of 0.1 M Na2CO3 is added to terminate the reaction. The liberated p-nitrophenol was measured at 405 nm with an Elisa microplate reader. […] All the experiments were performed in triplicates.[31]
The inhibition was calculated in percentage as:% Inhibition = [(C − T)/C] × 100C – absorbance of control, T – absorbance of sample.

Drosophila melanogaster = test: In vivo antihyperglycemic test in Drosophila on high sugar diet; details: for significance of antihyperglycemic activity: Drosophila on HSD, 18 μg g^−1 feed; for reduction in glucose levels, female flies / percent reduction in glucose levels, male flies: HSD with 18 μg g^−1 feed, 10 days
Method: In this study, Oregon-R flies were obtained directly from the Nitte University, Drosophila Lab, Mangalore, India, and maintained on a wheat cream-agar medium with a relative humidity of 65–70%, and a light–dark cycle of twelve hours each. Separation of males and females of one-day-old flies were cultured in, food containing high sugar diet (HSD), and different groups of food containing HSD with uniform concentrations (18 μg g^−1 feed) of the compounds 5a, 5b, 5j for 10 days. Acarbose was administered as a positive control. Twenty flies were taken and they were homogenized in 0.2 mL of ice-cold phosphate buffer saline. (pH 7.4). Homogenized samples were centrifuged at 10 000g for 15 min at 4 °C. All fly homogenates were tested for glucose concentration using the manufacturer's protocol (Agape Diagnostics Ltd, India). Throughout the experiments, the control group was maintained in the same conditions as that of other groups except for HSD and compounds. All experiments were carried out in triplicates and the results were expressed in percentages respective to the control group.[32]
The results of all the experiments (n = 3) were analyzed and expressed as mean ± standard deviation (SD). The Student's t-test was performed using GraphPad Prism software (GraphPad Software Inc., CA, USA). p values ≤ 0.05 were considered as statistically significant (*p ≤ 0.05; *p ≤ 0.01; **p ≤ 0.001).

NIH/3T3 cells = test: MTT cytotoxicity assay; assay type: cell-based; details: 100 μmol, 24 h incubation
Method: The cytotoxic concentration of synthetic compounds (5a–5j) was evaluated by MTT assay. A standard MTT assay was performed with various concentrations of synthesized compounds against NIH/3T3 cells using a 96-well microplate reader at 570 nm. The cell lines were cultured in DMEM, supplemented with 10% FBS in flasks, and incubated at 37 °C with 5% CO2 in DMEM medium with streptomycin and penicillin (100 IU mL^−1) at the appropriate concentrations. The 96-well plates with media were incubated. After overnight incubation, each plate was discarded and fresh medium was added to each well with varying concentrations (5 μM, 10 μM, 25 μM, 50 μM, 100 μM) of test samples. Then, 200 μL of MTT (0.5 mg mL^−1) were put in each well and further incubated for four hours. Afterward, DMSO (100 μL) was transferred into each microplate well. The absorbance was measured at 570 nm to determine how much MTT was reduced to formazan in the cells.

Row | Compound | IC50 (α-amylase) | IC50 (α-glucosidase) | melting point | significance of antihyperglycemic activity (Drosophila melanogaster) | reduction in glucose levels, female flies (Drosophila melanogaster; whole-body homogenate) | percent reduction in glucose levels, male flies (Drosophila melanogaster; whole-body homogenate) | percentage cell toxicity (inhibition of cellular viability) (NIH/3T3 cells) | reduction in glucose level (Drosophila melanogaster; HSD along with acarbose, whole-body homogenate, sex not stated)
1 | O=C1CSC(=O)N1Cc1nnc(-c2ccc([N+](=O)[O-])cc2)o1 [Compound 5i, 3-((5-(4-Nitrophenyl)-1,3,4-oxadiazol-2-yl)methyl)thiazolidine-2,4-dione] | 21.1 ± 0.23 µM | 25.2 ± 0.28 µM | 153 to 155 °C | – | – | – | – | –
2 | O=C1CSC(=O)N1Cc1nnc(-c2ccc([N+](=O)[O-])cc2Cl)o1 [Compound 5h, 3-((5-(2-Chloro-4-nitrophenyl)-1,3,4-oxadiazol-2-yl)methyl)thiazolidine-2,4-dione] | 23.2 ± 0.31 µM | 28.2 ± 0.31 µM | 161 to 163 °C | – | – | – | – | –
3 | O=C1CSC(=O)N1Cc1nnc(-c2ccccc2)o1 [Compound 5e, 3-((5-Phenyl-1,3,4-oxadiazol-2-yl)methyl)thiazolidine-2,4-dione] | 32.4 ± 0.46 µM | 33.5 ± 0.45 µM | 215 to 217 °C | – | – | – | – | –
4 | 3-((5-(4-Bromophenyl)-1,3,4-oxadiazol-2-yl)methyl)thiazolidine-2,4-dione [Compound 5b] | 34.1 µM and 22.6 µM | 22.25 ± 0.22 µM | – | significant | 7.03% | 28.4% | – | –
5 | O=C1CSC(=O)N1Cc1nnc(-c2ccc(O)cc2O)o1 [Compound 5j, 3-((5-(2,4-Dihydroxyphenyl)-1,3,4-oxadiazol-2-yl)methyl)thiazolidine-2,4-dione] | 18.4 ± 0.21 µM | 17.2 ± 0.22 µM | 204 to 206 °C | significant | 37% | 29.05% | 83% | –
6 | O=C1CSC(=O)N1Cc1nnc(-c2ccc(Cl)cc2Cl)o1 [Compound 5a, 3-((5-(2,4-Dichlorophenyl)-1,3,4-oxadiazol-2-yl)methyl)thiazolidine-2,4-dione] | 18.6 ± 0.22 µM | 17.6 ± 0.19 µM | 210 to 212 °C | insignificant | 12.1% | 27.7% | – | –
7 | 3-((5-(4-Aminophenyl)-1,3,4-oxadiazol-2-yl)methyl)thiazolidine-2,4-dioneone [Compound 5c] | 22.6 µM and 34.1 µM | 27.25 ± 0.23 µM | – | – | – | – | – | –
8 | O=C1CSC(=O)N1Cc1nnc(-c2ccc(Cl)cc2)o1 [Compound 5g, 3-((5-(4-Chlorophenyl)-1,3,4-oxadiazol-2-yl)methyl)thiazolidine-2,4-dione] | 28.9 ± 0.36 µM | 27.25 ± 0.24 µM | 172 to 174 °C | – | – | – | – | –
9 | C[C@H]1O[C@H](O[C@H]2[C@H](O)[C@@H](O)[C@@H](O[C@H]3[C@H](O)[C@@H](O)C(O)O[C@@H]3CO)O[C@@H]2CO)[C@H](O)[C@@H](O)[C@@H]1N[C@H]1C=C(CO)[C@@H](O)[C@H](O)[C@H]1O (stereo partly shown) [Acarbose, reference compound] | – | – | – | – | – | – | – | about 62%
10 | O=C1CSC(=O)N1Cc1nnc(-c2ccc(O)cc2)o1 [Compound 5d, 3-((5-(4-Hydroxyphenyl)-1,3,4-oxadiazol-2-yl)methyl)thiazolidine-2,4-dione] | 55.4 ± 0.66 µM | 45.3 ± 0.79 µM | 192 to 194 °C | – | – | – | 87% | –
11 | COc1ccc(-c2nnc(CN3C(=O)CSC3=O)o2)cc1 [Compound 5f, 3-((5-(4-Methoxyphenyl)-1,3,4-oxadiazol-2-yl)methyl)thiazolidine-2,4-dione] | 39.2 ± 0.52 µM | 51.3 ± 0.83 µM | 178 to 180 °C | – | – | – | – | –
